Source: patent publication US20180327367A1, “MACROCYCLIC BROAD SPECTRUM ANTIBIOTICS” (priority 2015, published 2018)
In brackets after ≈: the same amount, converted by molar mass. Read-outs that look alike come from different tables or passages of the source.

Columns and labels:
[1] = target: T1, SpsB (Staphylococcus aureus signal peptidase) (Staphylococcus aureus, UniProt P0A070); assay: cell-based; assay type: biochemical; settings: SpsB IC50, whole-cell S. aureus (USA300 background, overexpressing SpsB) as SpsB source; fluorogenic peptide substrate, kinetic read 30 min
T1 construct: This assay uses a suspension of Staphylococcus aureus cells as a source of SpsB instead of recombinant SpsB protein; endogenous in cells; host or cells: S. aureus, USA300 background, overexpressing SpsB (whole-cell suspension from frozen pellets)
T1 sequence (P0A070 whole entry): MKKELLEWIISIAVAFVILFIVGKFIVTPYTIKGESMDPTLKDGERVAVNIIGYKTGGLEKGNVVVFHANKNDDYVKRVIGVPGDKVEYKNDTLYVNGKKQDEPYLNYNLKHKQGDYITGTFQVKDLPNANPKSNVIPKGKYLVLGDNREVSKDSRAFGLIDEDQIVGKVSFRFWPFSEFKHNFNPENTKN
Procedure, shortened: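 Whole S. aureus cells (USA300, overexpressing SpsB) in PBS with MgCl2, CaCl2 and 0.1% Tween-80 served as enzyme source, mixed with 20 μM stock of (Dabcyl)βAla-KPAKAAE(Edans) substrate before use. Fluorescence (ex 340/em 490 nm) read kinetically over 30 min. IC50 from reaction rate versus 11-point inhibitor concentration.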

[2] = system: Methicillin Resistant Staphylococcus aureus strain USA 300, NRS384; assay: Minimum inhibitory concentration, broth micro-dilution (CLSI), S. aureus; assay type: cell-based; settings: Staphylococcus aureus, MRSA / NRS 384 / USA300, 22 h, 35° C., 22 hours
Procedure, shortened: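 Colonies grown 20 hours at 35° C were suspended in cation-adjusted Mueller Hinton Broth with 0.002% Tween-80. Cells were then added to 2-fold compound dilutions starting at 4 or 0.5 μg/mL, at OD600 0.0005.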

[3] = system: Escherichia coli ATCC 25922; assay: Minimum inhibitory concentration, broth micro-dilution (CLSI), E. coli; assay type: cell-based; settings: Escherichia coli, ATCC25922, 22 h, 35° C., 22 hours
[4] = system: Escherichia coli MC4100 harboring the IMP4213 (E. coli IMP); assay: microbe, parasite or virus in culture; assay type: cell-based; settings: Escherichia coli, 22 h, read-out: MIC (μg/mL) E. coli IMP, E. coli MC4100 IMP4213, increased outer-membrane permeability; 35° C., 22 hours
Procedure, shortened: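 Broth micro-dilution per CLSI in cation-adjusted Mueller Hinton Broth with 0.002% Tween-80; E. coli MC4100 carries IMP4213, raising outer-membrane permeability. Compounds tested as 2-fold serial dilutions (10 concentrations) from 4 μg/mL (protocol 2) or 0.5 μg/mL (protocol 3); inoculum OD600 0.0005, 35° C for 22 hours.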

[5] = MRSA USA 300 NRS384, read-out: MIC (μg/mL) S. aureus
[6] = E. coli ATCC 25922, read-out: MIC (μg/mL) E. coli
[7] = read-out: MIC (μg/mL) S. aureus, MRSA USA 300 NRS384
[8] = read-out: MIC (μg/mL) E. coli, E. coli ATCC 25922

Structure (SMILES)	IC50 [1]	MIC [2, 5]	MIC [3, 6]	MIC [4]	MIC [2, 7]	MIC [3, 8]
CCCCC1CCC(C2CCC(C(=O)N[C@@H](CCN)C(=O)N(C)[C@@H]3C(=O)N[C@@H](C)C(=O)N[C@H](C(=O)NCC#N)Cc4ccc(OCCN)c(c4)-c4cc3ccc4OCCN)CC2)CC1 (some centres unmarked) [Compound 426]	1.2 nM	0.063 µg/mL (≈ 0.0711 µM)	0.19 µg/mL (≈ 0.214 µM)	< 0.0039 µg/mL		
C[C@@H]1NC(=O)[C@@H](N(C)C(=O)[C@H](CCN)NC(=O)/C=C/c2ccc(-c3ccc(Cl)cc3)cc2)c2ccc(OCCN)c(c2)-c2cc(ccc2OCCN)C[C@@H](C(=O)NCC#N)NC1=O [Compound 427]	1.2 nM			0.047 µg/mL (≈ 0.0535 µM)	0.063 µg/mL (≈ 0.0717 µM)	1 µg/mL (≈ 1.14 µM)
CCCCc1ccc(/C=C/C(=O)N[C@@H](CCN)C(=O)N(C)[C@@H]2C(=O)N[C@@H](C)C(=O)N[C@H](C(=O)NCC#N)Cc3ccc(OCCN)c(c3)-c3cc2ccc3OCCN)cc1 [Compound 428]	1.2 nM	0.094 µg/mL (≈ 0.114 µM)	1 µg/mL (≈ 1.21 µM)	0.023 µg/mL (≈ 0.0279 µM)		
Cc1cc(/C=C/c2ccccc2)ccc1C(=O)N[C@@H](CCN)C(=O)N(C)[C@@H]1C(=O)N[C@@H](C)C(=O)N[C@H](C(=O)NCC#N)Cc2ccc(OCCN)c(c2)-c2cc1ccc2OCCN [Compound 429]	0.81 nM	0.063 µg/mL (≈ 0.0734 µM)	0.75 µg/mL (≈ 0.874 µM)	0.0078 µg/mL (≈ 0.00909 µM)		
Cc1cc(C2CCCCC2)ccc1C(=O)N[C@@H](CCN)C(=O)N(C)[C@@H]1C(=O)N[C@@H](C)C(=O)N[C@H](C(=O)NCC#N)Cc2ccc(OCCN)c(c2)-c2cc1ccc2OCCN [Compound 431]	0.77 nM	0.063 µg/mL (≈ 0.0752 µM)	0.88 µg/mL (≈ 1.05 µM)	0.023 µg/mL (≈ 0.0274 µM)		
C[C@@H]1NC(=O)[C@@H](N(C)C(=O)[C@H](CCN)NC(=O)c2ccc(-c3ccc(C4CCCCC4)cc3)cc2)c2ccc(OCCN)c(c2)-c2cc(ccc2OCCN)C[C@@H](C(=O)NCC#N)NC1=O [Compound 432]	1.4 nM			0.016 µg/mL (≈ 0.0178 µM)	0.094 µg/mL (≈ 0.104 µM)	0.13 µg/mL (≈ 0.144 µM)
CCC(C)c1ccc(C(=O)N[C@@H](CCN)C(=O)N(C)[C@@H]2C(=O)N[C@@H](C)C(=O)N[C@H](C(=O)NCC#N)Cc3ccc(OCCN)c(c3)-c3cc2ccc3OCCN)c(C)c1 (some centres unmarked) [Compound 434]	1.5 nM	0.25 µg/mL (≈ 0.308 µM)	2 µg/mL (≈ 2.46 µM)	0.047 µg/mL (≈ 0.0579 µM)		
Cc1cc(C2CCCCCC2)ccc1C(=O)N[C@@H](CCN)C(=O)N(C)[C@@H]1C(=O)N[C@@H](C)C(=O)N[C@H](C(=O)NCC#N)Cc2ccc(OCCN)c(c2)-c2cc1ccc2OCCN [Compound 436]	0.78 nM	0.047 µg/mL (≈ 0.0552 µM)	0.38 µg/mL (≈ 0.446 µM)	0.0078 µg/mL (≈ 0.00915 µM)		
CCCCCCCc1cc(F)c(C(=O)N[C@@H](CCN)C(=O)N(C)[C@@H]2C(=O)N[C@@H](C)C(=O)N[C@H](C(=O)NCC#N)Cc3ccc(OCCN)c(c3)-c3cc2ccc3OCCN)c(Cl)c1 [Compound 437]	0.9 nM	0.063 µg/mL (≈ 0.0706 µM)	0.25 µg/mL (≈ 0.28 µM)	0.0078 µg/mL (≈ 0.00874 µM)		
CCCCCCCCc1cc(C)c(C(=O)N[C@@H](CCN)C(=O)N(C)[C@@H]2C(=O)N[C@@H](C)C(=O)N[C@H](C(=O)NCC#N)Cc3ccc(OCCN)c(c3)-c3cc2ccc3OCCN)s1 [Compound 438]	0.78 nM	0.063 µg/mL (≈ 0.0721 µM)	0.38 µg/mL (≈ 0.435 µM)	0.031 µg/mL (≈ 0.0355 µM)		
CCCCCCCOc1ccc(C(=O)N[C@@H](CCN)C(=O)N(C)[C@@H]2C(=O)N[C@@H](C)C(=O)N[C@H](C(=O)NCC#N)Cc3ccc(OCCN)c(c3)-c3cc2ccc3OCCN)c(C(F)F)c1 [Compound 442]	2.9 nM	0.063 µg/mL (≈ 0.0695 µM)	0.19 µg/mL (≈ 0.21 µM)	0.0078 µg/mL (≈ 0.00861 µM)		
Cc1nn(-c2ccc(CC(C)C)cc2)cc1C(=O)N[C@@H](CCN)C(=O)N(C)[C@@H]1C(=O)N[C@@H](C)C(=O)N[C@H](C(=O)NCC#N)Cc2ccc(OCCN)c(c2)-c2cc1ccc2OCCN [Compound 443]	0.9 nM	0.094 µg/mL (≈ 0.107 µM)	4 µg/mL (≈ 4.56 µM)	0.047 µg/mL (≈ 0.0535 µM)		
Cc1cc(-n2cc(CC(C)C)cn2)ccc1C(=O)N[C@@H](CCN)C(=O)N(C)[C@@H]1C(=O)N[C@@H](C)C(=O)N[C@H](C(=O)NCC#N)Cc2ccc(OCCN)c(c2)-c2cc1ccc2OCCN [Compound 445]	1 nM	0.094 µg/mL (≈ 0.107 µM)	1 µg/mL (≈ 1.14 µM)	0.016 µg/mL (≈ 0.0182 µM)		
CCCCCCCCc1ccc(C(=O)N[C@@H](CCN)C(=O)N(C)[C@@H]2C(=O)N[C@@H](C)C(=O)N[C@H](C(=O)NCC#N)Cc3ccc(OCCN)c(c3)-c3cc2ccc3OCCN)c(CC(N)=O)c1 [Compound 448]	0.93 nM			0.016 µg/mL (≈ 0.0176 µM)	0.023 µg/mL (≈ 0.0252 µM)	0.75 µg/mL (≈ 0.823 µM)
